Source: US6846826B2, “Phenoxypropanol connected with phenylpiperazine and phenoxyalkylamine terminal in its side chain” (priority 2001, dated 2005)

Legend:
β1 [1] = molecular target: T1, β1 (Rattus norvegicus, UniProt P18090); assay: Isolated rat right atrium, antagonism of L-isoproterenol-induced rate increase (Schild plot); details: for β1 pA2 value, Right atrium: vs L-isoproterenol, mean ± S.E. of six to eight
T1 construct: The right and left atria were then separated; from tissue; host or cells: isolated rat right atrium (spontaneously beating) and left atrium (electrically driven)
T1 sequence (P18090 whole entry): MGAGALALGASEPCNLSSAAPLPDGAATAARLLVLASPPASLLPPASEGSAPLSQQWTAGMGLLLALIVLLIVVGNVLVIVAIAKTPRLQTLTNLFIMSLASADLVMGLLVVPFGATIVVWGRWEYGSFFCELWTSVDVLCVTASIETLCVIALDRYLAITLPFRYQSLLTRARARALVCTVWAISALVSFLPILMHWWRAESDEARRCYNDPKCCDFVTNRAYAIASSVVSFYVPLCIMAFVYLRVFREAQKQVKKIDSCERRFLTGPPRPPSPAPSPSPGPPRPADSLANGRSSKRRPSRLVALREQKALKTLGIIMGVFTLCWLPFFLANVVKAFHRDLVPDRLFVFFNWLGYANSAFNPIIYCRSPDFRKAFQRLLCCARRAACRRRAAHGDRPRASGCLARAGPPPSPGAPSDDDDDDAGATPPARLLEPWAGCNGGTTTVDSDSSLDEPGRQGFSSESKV
Method: The entire heart of rat (weighing 200˜300 g) was removed immediately after the rat was sacrificed and the blood drained by incised carotid arteries, and placed in Kreb's solution equilibrated to a mixture of 95% O2 and 5% CO2 at room temperature (20˜25° C.). The right and left atria were then separated.
The spontaneously-beating right atria was clipped on both end by heart shaped clips, where one end was fixed at the bottom of 10 ml of tissue bath made of physiological saline solution, and temperature maintained at 37° C. The other end of the atria was connected to a force transducer, and isometric contractions and beating rate of the right atria were recorded by COULBOURN AT-High-Speed VideoFigure. After the samples were given 250 mg of contractions and reach equilibrium the following experiments were carried out:
(§1) When the spontaneously beating rate of right atria reached a certain stability, cumulative administration of L-isoproterenol from 1×10^−[…] M caused the heart rate to increase continuously, and a cumulative dose-response curve was obtained. Then the L-isoproterenol was thoroughly washed off with Kreb's solution to recover the right atria's heart rate stability. After the equilibrum was reached again for at least 60 minutes, different concentrations (10^−7, 10^−6, 10^−5 M) of compounds were added. 30 minutes later, cumulative administration of L-isoproterenol from […] were carried out again, and another new cumulative dose-response curve was obtained. Administration of L-isoproterenol started from concentration 1×10^−10 M, and the concentration was raised 0.5 log each time for a total of six times. Cumulative administration interval was when the previous concentration reached its greatest effect, the next concentration would be immediately given. The time interval was approximately 3˜5 minutes, and the EC50 value could be obtained. From Schild plots, the pA2 of compounds could be found. In other groups of rats, after separate administration of test compounds, their pA2 values were obtained.
(§2) According to the method mentioned by Arunlakshana, O. et al.(Br. J. Pharmacol. Vol.14, pp. 48-57, 1959), which used the logarithm values of compound concentration testings as the x-coordinates, and the logarithm values of blocking agent of similar effect and […] as the y-coordinates, the data obtained were plotted into Figures and the slope of regression found. From x-coordinates of the line of regression, the intercept value was found, which is the pA2 value of the compound under testing. The equation is as follows: [formula] [formula] • [B]=Test compound concentration in moles • KB: equilibrium dissociation constant • n: value of slope • DR: test EC50 divided by control EC50 • CF: EC50 of second or third control groups divided by EC50 of first control group

β1 [2] = molecular target: T1, β1; assay: Isolated rat left atrium (electrically driven), antagonism of L-isoproterenol (Schild plot); details: for β1 pA2 value, Left atrium: vs L-isoproterenol, mean ± S.E. of six to eight
Method: as §1, §2
The inspontaneously-beating left atrial tissue was obtained from rat's isolated right atrial tissue experiments. […] The contraction rate was 2 Hz and the resting tension 0.5 gm. After 60 minutes of equilibration, the following experiments were performed: • (a) Completion of cumulative concentration-response curve: similar to experimental method on isolated right atrium; • (b) Calculation of pA2 value: similar to calculation method on isolated right atrium.

Calcium = assay: Isolated Wistar rat thoracic aorta, antagonism of CaCl2-induced contraction; details: vs CaCl2
Method: (§3) After sacrificing Wistar rat of weight between 200˜300 gm, the thoracic aorta was immediately removed and placed in cold Kreb's solution. The fatty connecting tissue surrounding the vessel wall was removed and the thoracic aorta was cut into rings of length 5 mm. The two ends of each ring was pieced and fixed with “Z” shaped platinum wires. Then the thoracic aorta was suspended in 10 ml of tissue bath, aerated with air mixture (95% O2+5% CO2) and maintained at 37° C., where one end was fixed at the bottom of tissue trough, the other end connected to force transducer to record the long contraction via recorder. The sample was given 1 gm of tension and equilibrated for 60 minutes before the following experiments were carried out.
After thoracic aorta had reached equilibrium in the tissue trough, cumulative administration of CaCl2 from […] caused the blood vessel contract to increase tension continuously, and a cumulative dose-response curve was obtained. Then the CaCl2 was thoroughly washed off with Kreb's solution to recover the aorta stability. After the equilibrum was reached again for at east 60 minutes, different concentrations as 10^−8, 10^−7, 10^−6 M of test compounds were added. 30 minutes later, cumulative administration of CaCl2 from 3×10^−5˜10^−2 M were carried out again, and another new cumulative dose-response curve was obtained. Cumulative administration interval was when the previous concentration reached its greatest effect, the next concentration would be immediately given. The time interval was approximately 3˜5 minutes, and the EC50 value could be obtained. From Schild plots, the pA2 of test compounds could be found. Calculation of pA2 value: similar to calculation method on isolated right atrium.

[3] = Heart rate and blood pressure in living rat (anaesthetized, i.v.); type: in vivo, Wistar rat; details: via femoral vein, dose not given (method: 0.5; 1.0; 3.0 mg/kg)
Excerpt: Male Wistar rats, weighing 200˜300 g were abdominal anaesthetized with pentobarbital sodium. Tracheal was cannulated to maintain normal respiration. Polyethylene tube (inside diameter 0.58 mm, outside diameter 0.97 mm) was inserted into the left femoral vein to facilitate drug administration. A 3-way stopcock was used, with one end connected to a syringe for drug injection, while the other end was connected to the syringe filled with physiological saline. The latter was used to prevent residual drugs in the polyethylene tube after injection, which would affect experimental accuracy.
The right femoral artery was also inserted with polyethylene, and a 3-way stopcock was used tool, where one end was connected to heparin solution to prevent embolism. The other end was connected to a Disposable Diaphragm Dome, TA10019, and linked to a transducer. Through an amplifier, a recorder recorded the overall and average arterial pressure; heart rate to evaluate the effect of drug on blood pressure and heart rate. Different concentrations 0.5; 1.0; 3.0 mg/kg of compounds were given to the rats via femoral vein and the differences in the heart rate and blood pressure were compared. Furthermore in another group, test compounds of concentration 0.5; 1.0; 3.0 mg/kg were separately given to different rats via femoral vein, and the differences in the heart rate and blood pressure were compared.

β2 = molecular target: T2, β2 (Cavia porcellus, UniProt Q8K4Z4); assay: Isolated guinea pig trachea, antagonism of L-isoproterenol relaxation (Schild plot); details: for β2 pA2 value, Trachea: vs L-isoproterenol, mean ± S.E. of six to eight
T2 construct: a portion of tracheal approximately 4 cm long was removed; from tissue; host or cells: isolated guinea pig trachea (reserpinised animals)
T2 sequence (Q8K4Z4 whole entry): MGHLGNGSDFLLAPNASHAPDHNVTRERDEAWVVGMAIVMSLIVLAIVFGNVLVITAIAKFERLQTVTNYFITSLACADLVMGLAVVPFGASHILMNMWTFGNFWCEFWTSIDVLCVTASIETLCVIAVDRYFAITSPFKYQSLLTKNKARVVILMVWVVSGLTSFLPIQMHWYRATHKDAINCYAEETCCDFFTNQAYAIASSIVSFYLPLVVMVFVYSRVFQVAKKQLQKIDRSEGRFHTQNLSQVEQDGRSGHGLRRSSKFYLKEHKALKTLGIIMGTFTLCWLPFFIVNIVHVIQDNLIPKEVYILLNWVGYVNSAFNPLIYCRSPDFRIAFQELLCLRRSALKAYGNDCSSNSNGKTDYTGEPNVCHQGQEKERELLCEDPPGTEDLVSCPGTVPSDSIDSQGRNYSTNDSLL
Method: Guinea pigs of weight between 250˜350 gm were used.
After the guinea pigs were sacrificed, a slit was made along the neck, and a portion of tracheal approximately 4 cm long was removed. The tracheal was then placed in Kreb's solution aerated with a mixture of 95% O2 and 5% CO2 and maintained at room temperature about 22˜25° C. […] The two ends of the tracheal were clamped with frog-heart shaped clamps, one end was fixed at the bottom of tissue bath filled with 200 ml of Kreb's solution, maintained at 37° C., while the other end was connected to a force transducer. Through a COULBOURN AT-High-Speed Videograph, long isometric contractions were recorded. After the sample was given 1.5 gm of tension and equilibrated, the following experiments were performed:
Then the tracheal was repeatedly washed with Kreb's solution for 20 minutes and […] of carbochol was added to cause contraction in the guinea pig's tracheal. When the contraction reached the maximum, every division of tracheal was used to complete two concentration response curve of L-isoproternol, one of them without administration of test compound and used as control; while the other curve was administered with 10^−7, 10^−6 and 10^−5 M test compounds for 30 minutes before concentration response curve was completed. This is the test group.
Similar to the calculation method for isolated right atrium experiment.

α1 = assay: Isolated Wistar rat thoracic aorta, antagonism of norepinephrine contraction (Schild plot); details: vs norepinephrine, mean ± S.E. of six to eight
Method: as §3
After thoracic aorta had reached equilibrium in the tissue trough, cumulative administration of norepinephrine from 10^−10˜3×10^−4 M caused the blood vessel contract to increase tension continuously, and a cumulative dose-response curve was obtained. Then the norepinephrine was thoroughly washed off with Kreb's solution to recover the aorta stability. After the equilibrum was reached again for at least 60 minutes, different concentrations as 10^−7, 10^−6, 10^−5 M of test compounds were added. 30 minutes later, cumulative administration of norepinephrine from […] were carried out again, and another new cumulative dose-response curve was obtained. Administration of norepinephrine started from concentration 1×10^−10 M, and the concentration was raised 0.5 log each time. Cumulative administration interval was when the previous concentration reached its greatest effect, the next concentration would be immediately given. The time interval was approximately 3˜5 minutes, and the EC50 value could be obtained. From Schild plots, the pA2 of test compounds could be found. Calculation of pA2 value: similar to calculation method on isolated right atrium.

| Compound | β1 Slope of Schild plot, Right atrium (β1 [1]) | β1 pA2 value, Right atrium (β1 [1]) | β1 Slope of Schild plot, Left atrium (β1 [2]) | β1 pA2 value, Left atrium (β1 [2]) | Calcium PKCa^−1 value, Aorta (Calcium) | Decrease of blood pressure [3] | β2 Slope of Schild plot, Trachea (β2) | β2 pA2 value, Trachea (β2) | α1 pA2 value, Aorta (α1) |
| --- | --- | --- | --- | --- | --- | --- | --- | --- | --- |
| COC(=O)C1=C(C)NC(C)=C(C(=O)OC)C1c1ccc(OCC(O)CNCCOc2ccccc2OC)cc1 (stereo not drawn) [Labedipinedilol-B] | (0.97 ± 0.10) | 6.61 ± 0.11 | (0.83 ± 0.06) | 6.81 ± 0.08 | 8.02 ± 0.04 | 60 ± 15 mmHg | (0.85 ± 0.03) | 6.48 ± 0.07 | 7.55 ± 0.05 |
| COC(=O)C1=C(C)NC(C)=C(C(=O)OC)C1c1ccc(OCC(O)CN2CCN(c3ccccc3Cl)CC2)c(OC)c1 (stereo not drawn) [Labedipinedilol-C] | (1.02 ± 0.04) | 7.01 ± 0.09 | (0.99 ± 0.03) | 7.23 ± 0.07 | 8.12 ± 0.04 | 50 ± 17 mmHg | (0.92 ± 0.02) | 5.54 ± 0.16 | 6.87 ± 0.08 |
| COC(=O)C1=C(C)NC(C)=C(C(=O)OC)C1c1ccc(OCC(O)CNCCOc2ccccc2C)c(OC)c1 (stereo not drawn) [Labedipinedilol-D] | (0.84 ± 0.03) | 7.23 ± 0.03 | (1.12 ± 0.04) | 6.31 ± 0.12 | 8.23 ± 0.06 | 55 ± 9 mmHg | (1.10 ± 0.06) | 5.70 ± 0.06 | 7.23 ± 0.05 |
| COC(=O)C1=C(C)NC(C)=C(C(=O)OC)C1c1ccc(OCC(O)CNCCOc2ccccc2Cl)c(OC)c1 (stereo not drawn) [Labedipinedilol-E] | (1.12 ± 0.06) | 6.24 ± 0.06 | (1.07 ± 0.05) | 6.15 ± 0.09 | 8.08 ± 0.04 | 58 ± 7 mmHg | (0.65 ± 0.03) | 5.07 ± 0.12 | 8.46 ± 0.05 |
